Measured values as given in paper PMC10987949, “Inhibition of HIV-1 release by ADAM metalloproteinase inhibitors” (Frontiers in Microbiology, 2024).

How the values were obtained:
[1] = system: HIV-1LAI; assay: TEM of immunogold labeled CD62L on HIV-1LAI infected PBMC; type: cell-based
Description: For immunogold labeling, ~10^6 cells were washed with 2 mL PBS, gently centrifuged at 250 g for 5 min, resuspended in 100 μL of labeling buffer (PBS with 1% BSA), and incubated with 10 μg of mouse anti-human CD62L (clone FMC46, Thermofisher) for 1 h on ice. After removal of the primary antibody and wash, cells were incubated with 10 μg of secondary goat anti-mouse IgG H&L conjugated to 10 nm gold nanoparticles (Electron Microscopy Sciences) for 1 h on ice, then washed and fixed in 2.5% glutaraldehyde with 0.1 M sodium cacodylate at pH 7.4. Specimens for transmission electron microscopy (TEM) were fixed with 2.5% glutaraldehyde in 0.1 M Sorenson’s buffer. Samples were post-fixed 1 h with 0.5% osmium tetroxide/0.8% potassium ferricyanide, 1 h with 1% tannic acid and overnight with 1% uranyl acetate at 4°C. Samples were dehydrated with a graded ethanol series and embedded in Spurr’s resin. Thin sections were cut with a Leica UCT ultramicrotome (Vienna, Austria) stained with 1% uranyl acetate and Reynold’s lead citrate prior to viewing at 80 kV on a Hitachi 7500 transmission electron microscope (Hitachi-High Technologies, Tokyo, Japan). Approximately 100 images were acquired with an AMT digital camera system (AMT, Chazy, NY) from each sample on sections containing HIV virions. HIV virions are identified as ~100 nm sized particles with visible membrane enclosed capsid.

[2] = system: ADAM9, 10 and 17 mRNA; assay: RT-PCR of ADAM9, 10 and 17 mRNA in HIV-1BAL infected PBMC; type: cell-based, human; settings: day 3 and 6 of infected samples
Description: RT-PCR using ADAM9, 10 and 17 primer probes was assayed using TaqMan primer/probe sets from ThermoFisher with a 50 ng cDNA template as described previously ([Chun et al., 2013]; [Kononchik et al., 2018]). The following TaqMan 20X Gene Expression Assay probes (Dye: FAM-MGB) were used: ADAM9 (Hs00177638_m1), ADAM10 (Hs00153853_m1), ADAM17 (Hs01041915_m1). Expression Assay standard probes (Dye: VIC-MGB) for β-Actin (Hs01060665_g1) or RNase P/RPPH1 (4403328) were used as gene expression controls. Briefly, HIV infected or uninfected cells from triplicate experiments were washed 3x in PBS and lysed for RNA isolation using RNeasy mini kit (QIAGEN corp). The corresponding cDNA samples were prepared using either TaqMan microRNA reverse transcription kit or Invitrogen High-Capacity cDNA reverse transcription kit (Thermo Fisher). Samples were run in duplicate across triplicate experiments on an ABI 7300 Real-Time PCR System (Applied Biosystems) with a threshold of 0.2. Relative gene expression was calculated using the 2^-ΔCt method and normalized to β-Actin or RNaseP as the endogenous controls. All statistical analyses were carried out using the software Prism 8 (GraphPad Software, Inc). Western blot analyses were used to detect the mature active form of ADAMs ([Pereira Vatanabe et al., 2021]). […]

## CNC(=O)[C@H](Cc1ccccc1)NC(=O)[C@H](CC(C)C)[C@H](CSc1cccs1)C(=O)NO [BB-94, Batimastat]
[1]; 50 μM, count in TEM images
  gold particles bound to cell surface virions: 63
  gold particles bound to released virions: 17
[1]; in presence of compound, DMSO 45%
  fraction of virion-associated gold particles on CD62L-tethered (budding) virions: 79%
[1]; in presence of compound, DMSO 55%
  fraction of virion-associated gold particles on released virions: 21%
[2]
  HIV-1BAL induced increase of ADAM9, 10, 17 mRNA: increase was not observed
